This note sets out measurements from ChEMBL document CHEMBL5143599, “Unraveling the Design and Discovery of c-Jun N-Terminal Kinase Inhibitors and Their Therapeutic Potential in Human Diseases” (J Med Chem, 2022).

Non-standard residues stand in square brackets, D forms with d. Residues, ends and D or L forms follow the SMILES beside them. Ahx = NCCCCCC(=O)O Bounds are passed on as bounds.

In assay [1] the target is T1, Mitogen-activated protein kinase 8 (Homo sapiens, UniProt P45983). As to the kind of experiment: Inhibition of JNK1 (unknown origin) using GST-c-jun (1-221) as substrate by scintillation counter analysis.
Assay [2] has as its target Mitogen-activated protein kinase 9 (Homo sapiens, UniProt P45984). As to the kind of experiment: Inhibition of JNK2 (unknown origin) using GST-c-jun (1-221) as substrate by scintillation counter analysis.
Assay [3] concerns the target T2, Mitogen-activated protein kinase 10 (Homo sapiens, UniProt P53779). As to the kind of experiment: Inhibition of JNK3 (unknown origin) using GST-c-jun (1-221) as substrate by scintillation counter analysis.
Assay [4] addresses T1, Mitogen-activated protein kinase 8. As to the kind of experiment: Inhibition of JNK1 (unknown origin).
The target in assay [5] is T2, Mitogen-activated protein kinase 10. Nature of the assay: Inhibition of JNK3 (unknown origin).
For assay [6], the target named is Mitogen-activated protein kinase 8 (Mus musculus, UniProt Q91Y86). As to the kind of experiment: Inhibition of JNK1 in mouse JB6 C1 41 cell lysate incubated for 1 hr relative to control. The assay is classed as subcellular, JB6 Cl 41-5a.
Assay [7] can be described thus: Antitumor activity against UVB-induced skin cancer SKH-1 mouse model assessed as reduction in tumor growth at 20 nmol, top relative to control. The assay is classed as functional, Tumor cell line. The arrangement: scale not given: the % may be the effect or the level left.
Assay [8] is described as follows: Antitumor activity against UVB-induced skin cancer SKH-1 mouse model assessed as reduction in tumor growth at 4 nmol, top relative to control. Also noted: scale not given: the % may be the effect or the level left. The assay is classed as functional, Tumor cell line.
A short description of assay [9]: Inhibition of transformation of H-RAS induced mouse JB6 C1 41 cells at 5 uM. The class given is functional, JB6 Cl 41-5a. The arrangement: scale not given: the % may be the effect or the level left.
The target of assay [10] is Mitogen-activated protein kinase 14 (Homo sapiens, UniProt Q16539). Nature of the assay: Inhibition of p38alpha (unknown origin).
For assay [11], the target named is T3, c-Jun N-terminal kinase, JNK (Homo sapiens, UniProt P45983+P53779+P45984). As to the kind of experiment: Inhibition of c-Jun phosphorylation in human A-375 cells. The class given is cell-based.
Assay [12] deals with T3, c-Jun N-terminal kinase, JNK. Nature of the assay: Inhibition of c-Jun phosphorylation in human HeLa cells. The assay is classed as cell-based.
Assay [13] deals with T1, Mitogen-activated protein kinase 8. Nature of the assay: Inhibition of JNK1 (unknown origin) using biotinylated FL-ATF-2 as substrate incubated for 15 mins by HTRF assay. For orientation: TR-FRET usually uses a lanthanide donor and a delayed reading to cut background.
Assay [14] addresses T2, Mitogen-activated protein kinase 10. Nature of the assay: Inhibition of JNK3 (unknown origin) using biotinylated FL-ATF-2 as substrate incubated for 15 mins by HTRF assay.
Assay [15] concerns the target T1, Mitogen-activated protein kinase 8. Nature of the assay: Inhibition of JNK1 (unknown origin) incubated for 1 hr by TR-FRET assay.
The target in assay [16] is Leucine-rich repeat serine/threonine-protein kinase 2 (Homo sapiens, UniProt Q5S007). Nature of the assay: Inhibition of LRRK2 (unknown origin).
The target of assay [17] is T2, Mitogen-activated protein kinase 10. As to the kind of experiment: Inhibition of JNK3 (unknown origin) in dark.
The target is the same in assay [18]. Nature of the assay: Inhibition of JNK3 (unknown origin) irradiated with 400 nm light.

T2 sequence (P53779 whole entry): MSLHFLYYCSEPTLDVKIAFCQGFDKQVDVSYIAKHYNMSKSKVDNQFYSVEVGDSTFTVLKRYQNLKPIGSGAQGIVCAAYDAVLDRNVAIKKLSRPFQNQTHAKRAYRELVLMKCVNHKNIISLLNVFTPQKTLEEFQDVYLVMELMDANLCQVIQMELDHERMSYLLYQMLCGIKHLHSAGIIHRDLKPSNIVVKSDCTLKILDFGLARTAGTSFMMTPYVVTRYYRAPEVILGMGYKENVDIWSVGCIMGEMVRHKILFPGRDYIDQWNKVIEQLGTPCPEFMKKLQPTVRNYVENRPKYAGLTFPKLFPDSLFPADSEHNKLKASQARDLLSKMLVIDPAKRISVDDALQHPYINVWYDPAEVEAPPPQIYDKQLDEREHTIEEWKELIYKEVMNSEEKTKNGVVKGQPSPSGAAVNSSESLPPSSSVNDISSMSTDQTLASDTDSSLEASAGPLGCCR
T1 sequence (P45983 whole entry): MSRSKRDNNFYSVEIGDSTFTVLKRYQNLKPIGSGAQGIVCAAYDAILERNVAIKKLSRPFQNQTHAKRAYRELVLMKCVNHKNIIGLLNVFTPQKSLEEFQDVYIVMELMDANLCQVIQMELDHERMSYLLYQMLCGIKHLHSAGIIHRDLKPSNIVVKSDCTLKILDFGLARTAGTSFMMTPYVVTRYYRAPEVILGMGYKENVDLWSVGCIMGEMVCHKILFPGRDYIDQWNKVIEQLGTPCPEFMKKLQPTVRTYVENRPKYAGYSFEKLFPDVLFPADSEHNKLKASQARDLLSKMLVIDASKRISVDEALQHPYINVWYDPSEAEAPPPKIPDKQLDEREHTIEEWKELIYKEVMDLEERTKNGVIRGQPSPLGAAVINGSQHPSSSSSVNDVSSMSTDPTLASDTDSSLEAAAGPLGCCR
Sequence of Mitogen-activated protein kinase 9 (P45984 whole entry): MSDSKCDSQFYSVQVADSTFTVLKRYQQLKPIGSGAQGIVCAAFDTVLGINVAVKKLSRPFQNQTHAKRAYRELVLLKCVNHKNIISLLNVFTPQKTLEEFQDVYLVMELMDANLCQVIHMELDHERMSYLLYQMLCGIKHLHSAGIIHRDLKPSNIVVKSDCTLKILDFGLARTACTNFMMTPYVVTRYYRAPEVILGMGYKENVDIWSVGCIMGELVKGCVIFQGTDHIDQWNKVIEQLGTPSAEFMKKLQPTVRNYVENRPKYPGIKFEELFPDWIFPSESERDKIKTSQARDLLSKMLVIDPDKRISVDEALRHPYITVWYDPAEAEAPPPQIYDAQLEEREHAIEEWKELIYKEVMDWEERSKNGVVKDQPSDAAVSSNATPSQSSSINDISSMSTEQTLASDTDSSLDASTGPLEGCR
Sequence of Mitogen-activated protein kinase 14 (Q16539 whole entry): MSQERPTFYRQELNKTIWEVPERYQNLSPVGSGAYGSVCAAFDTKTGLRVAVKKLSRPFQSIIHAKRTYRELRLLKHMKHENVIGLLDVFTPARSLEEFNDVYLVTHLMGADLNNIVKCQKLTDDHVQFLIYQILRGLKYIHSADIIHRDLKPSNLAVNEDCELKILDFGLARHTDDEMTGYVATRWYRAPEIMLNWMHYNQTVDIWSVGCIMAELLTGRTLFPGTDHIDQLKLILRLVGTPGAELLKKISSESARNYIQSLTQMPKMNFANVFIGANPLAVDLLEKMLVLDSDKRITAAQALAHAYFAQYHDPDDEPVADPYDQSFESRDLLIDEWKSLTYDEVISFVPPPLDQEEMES
Sequence of Leucine-rich repeat serine/threonine-protein kinase 2 (Q5S007 whole entry): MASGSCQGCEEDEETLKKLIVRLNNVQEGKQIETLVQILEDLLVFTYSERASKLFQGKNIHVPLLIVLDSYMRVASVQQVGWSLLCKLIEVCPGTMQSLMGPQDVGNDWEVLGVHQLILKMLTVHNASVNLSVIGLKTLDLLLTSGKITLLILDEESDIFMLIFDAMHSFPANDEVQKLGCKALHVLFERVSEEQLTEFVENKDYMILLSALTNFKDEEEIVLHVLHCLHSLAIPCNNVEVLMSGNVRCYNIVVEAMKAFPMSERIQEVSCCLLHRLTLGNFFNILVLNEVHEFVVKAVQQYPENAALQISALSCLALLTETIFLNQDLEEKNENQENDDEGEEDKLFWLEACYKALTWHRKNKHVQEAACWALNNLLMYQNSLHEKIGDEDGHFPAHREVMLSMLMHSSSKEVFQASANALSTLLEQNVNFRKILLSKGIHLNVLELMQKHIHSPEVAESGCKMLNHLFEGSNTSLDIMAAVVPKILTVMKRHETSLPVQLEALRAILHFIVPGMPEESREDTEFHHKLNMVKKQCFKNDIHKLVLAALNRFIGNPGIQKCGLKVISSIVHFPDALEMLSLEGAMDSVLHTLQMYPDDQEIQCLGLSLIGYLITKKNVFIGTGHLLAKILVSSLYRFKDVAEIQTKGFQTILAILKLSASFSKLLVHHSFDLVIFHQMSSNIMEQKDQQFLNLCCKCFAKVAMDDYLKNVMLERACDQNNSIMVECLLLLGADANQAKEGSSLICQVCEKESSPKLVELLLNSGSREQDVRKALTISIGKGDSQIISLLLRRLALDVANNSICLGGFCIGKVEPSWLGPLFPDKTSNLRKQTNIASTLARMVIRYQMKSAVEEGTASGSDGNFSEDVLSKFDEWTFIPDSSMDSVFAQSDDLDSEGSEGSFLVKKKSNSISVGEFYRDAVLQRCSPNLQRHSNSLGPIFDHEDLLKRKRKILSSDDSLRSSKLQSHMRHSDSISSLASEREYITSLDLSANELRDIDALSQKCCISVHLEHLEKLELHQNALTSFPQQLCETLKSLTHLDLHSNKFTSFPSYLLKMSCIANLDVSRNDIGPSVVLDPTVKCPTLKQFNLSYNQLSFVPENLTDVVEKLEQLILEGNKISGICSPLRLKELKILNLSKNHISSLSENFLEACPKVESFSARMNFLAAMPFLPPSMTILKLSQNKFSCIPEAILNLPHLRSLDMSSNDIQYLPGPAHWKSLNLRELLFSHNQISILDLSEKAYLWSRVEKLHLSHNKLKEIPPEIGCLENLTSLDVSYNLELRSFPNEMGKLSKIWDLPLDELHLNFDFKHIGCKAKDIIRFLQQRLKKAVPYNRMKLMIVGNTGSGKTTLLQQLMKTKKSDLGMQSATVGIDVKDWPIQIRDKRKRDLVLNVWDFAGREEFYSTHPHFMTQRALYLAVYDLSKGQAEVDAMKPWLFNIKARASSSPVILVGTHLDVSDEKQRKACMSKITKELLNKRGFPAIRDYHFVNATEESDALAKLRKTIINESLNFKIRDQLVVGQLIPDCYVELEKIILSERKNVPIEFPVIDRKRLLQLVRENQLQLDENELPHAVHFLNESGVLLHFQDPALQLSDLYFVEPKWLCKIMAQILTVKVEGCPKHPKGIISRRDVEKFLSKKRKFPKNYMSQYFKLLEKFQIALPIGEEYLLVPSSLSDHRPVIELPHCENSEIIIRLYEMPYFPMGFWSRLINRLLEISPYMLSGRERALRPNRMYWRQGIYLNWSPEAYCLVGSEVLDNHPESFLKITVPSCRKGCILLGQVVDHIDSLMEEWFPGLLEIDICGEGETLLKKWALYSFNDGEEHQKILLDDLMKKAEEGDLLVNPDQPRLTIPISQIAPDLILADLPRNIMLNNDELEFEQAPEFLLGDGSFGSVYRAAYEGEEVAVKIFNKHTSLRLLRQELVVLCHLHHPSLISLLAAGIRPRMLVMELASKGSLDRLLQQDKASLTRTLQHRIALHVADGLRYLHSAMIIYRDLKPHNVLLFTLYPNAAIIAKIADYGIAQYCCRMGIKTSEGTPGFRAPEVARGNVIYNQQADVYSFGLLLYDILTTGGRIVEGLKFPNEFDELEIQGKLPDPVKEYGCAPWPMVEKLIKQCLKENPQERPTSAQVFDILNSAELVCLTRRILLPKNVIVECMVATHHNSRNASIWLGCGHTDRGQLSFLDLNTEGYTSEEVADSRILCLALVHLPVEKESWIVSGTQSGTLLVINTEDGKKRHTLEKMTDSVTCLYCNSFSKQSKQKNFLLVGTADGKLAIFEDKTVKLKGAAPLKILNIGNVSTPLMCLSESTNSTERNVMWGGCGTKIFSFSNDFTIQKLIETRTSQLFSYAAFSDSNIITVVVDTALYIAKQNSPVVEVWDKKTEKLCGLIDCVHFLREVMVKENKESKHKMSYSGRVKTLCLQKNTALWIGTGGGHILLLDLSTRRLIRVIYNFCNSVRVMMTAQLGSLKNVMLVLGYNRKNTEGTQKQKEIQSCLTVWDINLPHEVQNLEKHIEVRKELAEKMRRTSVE
Sequence of Mitogen-activated protein kinase 8 (Mus musculus, UniProt Q91Y86) (Q91Y86 whole entry): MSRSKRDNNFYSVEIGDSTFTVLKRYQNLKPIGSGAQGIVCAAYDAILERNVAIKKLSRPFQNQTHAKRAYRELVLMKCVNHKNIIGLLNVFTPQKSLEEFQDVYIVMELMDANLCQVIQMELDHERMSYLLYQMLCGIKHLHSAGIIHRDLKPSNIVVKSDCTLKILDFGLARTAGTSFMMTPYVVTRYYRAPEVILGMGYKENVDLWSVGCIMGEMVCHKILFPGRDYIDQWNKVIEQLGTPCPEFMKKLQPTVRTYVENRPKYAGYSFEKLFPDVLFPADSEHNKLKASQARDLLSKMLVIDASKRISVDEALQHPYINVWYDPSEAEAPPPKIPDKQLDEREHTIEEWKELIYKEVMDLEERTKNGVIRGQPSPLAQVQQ

Consider H-PKRPTTLNLFRRRQRRKKRG-OH, for which the IC50 in assay [1] is 1160 nM; in assay [2], 92 nM; in assay [3], 1200 nM.
`O=c1c(O)c(-c2cc(O)c(O)c(O)c2)oc2cc(O)c(O)c(O)c12` gave a half-maximal inhibitory concentration (IC50) in assay [4] of 3400 nM.
Compound `O=C(CSc1c(-c2ccccc2)c2cc(Cl)ccc2[nH]c1=O)NC1CCCC1` had an IC50 in assay [5] of 58.2 nM.
On to `O=c1c(O)c(-c2ccc(O)c(O)c2)oc2cc(O)c(O)c(O)c12` [QUERCETAGETIN], for which the IC50 in [6] was 4600 nM. Moreover, the values for the Activity in assay [7], in assay [8] and in assay [9] were 46.7%, 32% and 73%, respectively.
In the case of `CSc1nc(C)c(-c2ccnc(Nc3ccc(N4CCOCC4)cc3)c2)[nH]1`, the IC50 in assay [10] is over 10000 nM; in [5], 184 nM.
Turning to `CN(C)C/C=C/C(=O)Nc1cccc(C(=O)Nc2ccc(Nc3nccc(-c4c(-c5ccccc5)nn5ccccc45)n3)cc2)c1`, the EC50 was 8.6 nM in [11] and 48 nM in assay [12].
As for `CC[C@H](C)[C@H](NC(=O)[C@@H]1CCCN1)C(=O)N[C@@H](CS)C(=O)N[C@@H](CCCNC(=N)N)C(=O)N1CCC[C@H]1C(=O)N[C@H](C(=O)N[C@H](C(=O)N[C@@H](CC(C)C)C(=O)N[C@@H](CC(N)=O)C(=O)N[C@@H](CC(C)C)C(=O)N[C@@H](Cc1ccccc1)C(=O)NCCCCCC(=O)N[C@@H](CCCNC(=N)N)C(=O)N[C@@H](CCCNC(=N)N)C(=O)N[C@@H](C)C(=O)N[C@@H](CCCNC(=N)N)C(=O)N[C@@H](CCCNC(=N)N)C(=O)N[C@@H](C)C(=O)N[C@@H](CCCNC(=N)N)C(=O)N[C@@H](CCCNC(=N)N)C(=O)N[C@@H](CCCNC(=N)N)C(=O)O)[C@@H](C)O)[C@@H](C)O` (H-PICRPTTLNLF[Ahx]RRARRARRR-OH), the IC50 in assay [1] came to 1100 nM; in [2], 89 nM; in assay [3] it was 1200 nM.
Consider `Cc1ccc(NC(=O)c2cccc(-n3cc(NC(=O)Nc4ccccc4Cl)cn3)c2)cn1`, for which the figures for the IC50 in [13] and in assay [14] were 1400 nM and 55 nM, respectively.
As for `COCCNc1nnc(Sc2ncc([N+](=O)[O-])s2)s1`, in assay [15], the IC50 was found to be 280 nM.
Consider `C=CC(=O)Nc1cccc(C(=O)Nc2ccc(Nc3cc(-c4c(C)nc(SC)n4C)ccn3)cc2)c1`, for which the half-inhibitory concentration (IC50) in assay [10] amounted to 1950 nM; in [5] it was 2000 nM.
Compound `O=c1c(O)c(-c2cc(O)c(O)c(CO)c2)oc2cc(O)c(O)c(O)c12` displayed an IC50 in assay [4] of 12200 nM.
Regarding `CC(C)CN(CC(=O)NCCCCCCNC(=O)c1ccc(-c2n[nH]c3ccccc23)cc1)C(=O)CNC(=O)C1COc2ccccc2C1` (stereo unspecified), the IC50 in [16] was 12 nM; in assay [5], 99 nM.
With `O=[N+]([O-])c1cnc(Sc2nnc(O)n2-c2ccc3c(c2)OCCO3)s1`, the results for the IC50 in assay [17] and in [18] were 507 nM and 31.9 nM, respectively.

By IC50 is commonly meant the point on the concentration scale where inhibition reaches its midpoint. The term EC50 denotes the concentration at which the effect is half-maximal.
